From patent US10292940B2, “Hyaluronic acid-based amphiphilic polymer, preparation method and application thereof” (BrightGene Bio-Medical Technology Co., Ltd., priority 2015, dated 2019)
Where two headings read alike, the source gives them in different places.

Key:
[1] = tested on: MCF-7/ADR tumor; experiment: Ex vivo imaging of organs of tumor-bearing nude mice; assay type: in vivo; conditions: DOX about 15 mg/kg, 10 h
Method: After 10 h, the heart, liver, spleen, lung, kidney and tumor block were collected, washed and fixed on a black plastic plate, which was then placed in a Maestro in vivo imaging system, and the intensity of DOX distribution in vivo was measured at an emission wavelength of 523 nm.

[2] = tested on: MCF-7/ADR tumor; experiment: Bio-distribution in organs of tumor-bearing nude mice; assay type: in vivo; conditions: DOX about 15 mg/kg, tail vein, after 10 h
[3] = tested on: MCF-7/ADR tumor; experiment: Anti-tumor effect in nude mice bearing drug-resistant breast-cancer tumor
Source text: (§1) Tumor-bearing nude mice with a tumor size of 50 mm^3 were randomly divided into three groups (six in each group), and this day is set to day 0. […] Effects of drug-loaded micelles on tumor growth in nude mice were regularly measured with a caliper. Changes in body weight of nude mice were regularly weighed with a balance. The tumor size was obtained based on a formula V=0.5×L×W×H […] of the longest points of the tumor; W is the length of the shortest points of the tumor; H is the height of the tumor). After 24 days, one mouse was randomly taken from each group and was killed by neck and spine dislocation, and the heart, liver and tumor of each mouse were removed and fixed with 4% formaldehyde, sliced and stained with hematoxylin and eosin (H & E) and subjected to histological analysis. The remaining nude mice were still observed. Mice were considered to be died when the nude mice died during treatment, or the tumor volume exceeded 1000 mm^3. Relative tumor volume (%)=tumor volume/tumor volume on day 0×100%. Relative weight change (%)=body weight of nude mice/body weight of nude mice on day 0×100%.

[4] = tested on: LP1 tumor (multiple myeloma)
Method: as §1, with “[…]” for “50 mm^3”, “V=0.5×L×W×H (L” for “V=0.5×L×W×H”, “[…]” for “nude mice/body”

[5] = Blood circulation in mice after tail vein injection; conditions: DOX 15 mg/kg, up to 24 h
Method: Six about 5-8 weeks old nude mice weighing 18-22 g were randomly divided into two groups, and each group was administered with DOX-loaded HA-Lys-LA crosslinked nanoparticles (MnHA=35 kDa, DS=10%, DLC=12%) or free DOX (DOX dosage being 15 mg/kg) via tail vein injection. 10 μL of blood was withdrawn from the tail vein each time at different time points after injection for 2 minutes, 15 minutes, 30 minutes, 1 h, 2 h, 4 h, 6 h, 8 h, 12 h, 24 h. After the blood was withdrawn, the blood sample was weighed and dissolved in 100 μL of 1% Triton solution, and then 1 mL of 0.75 mol/L hydrochloric acid isopropanol solution was added thereto. The mixture was allowed to stand overnight in dark at −20° C. After centrifugation, the supernatant was subjected to fluorescence test. % ID/g=(FL sample×(V Triton+V hydrochloric acid))/(M blood×FL standard×V standard×standard dilution factor)×100%
Six about 5-8 weeks old nude mice weighing 18-22 g were randomly divided into two groups, and each group was administered with DOX-loaded HA-Lys-LA crosslinked nanoparticles (MnHA=35 kDa, DS=40%, DLC=20%) or free DOX (DOX dosage being 15 mg/kg) via tail vein injection. […] After centrifugation, the supernatant was subjected to fluorescence test. % ID/g=(FL sample×(V Triton+V hydrochloric acid))/(M blood×FL standard×V standard×standard dilution factor)×100% […]

## COc1cccc2c1C(=O)c1c(O)c3c(c(O)c1C2=O)C[C@@](O)(C(=O)CO)C[C@@H]3O[C@H]1C[C@H](N)[C@H](O)[C@H](C)O1 [free DOX, doxorubicin]
[1]
  DOX distribution in tumor and organs (ex vivo fluorescence): almost did not concentrate at the tumor site
[2]
  enrichment of DOX at the tumor site: 0.63 % ID/g
[3]; DOX about 7.5 mg/kg
  reduction of body weight of nude mice: 28%
  side effects: large side effects
  time within which all mice died: ≤ 28 days
[3]; DOX about 7.5 mg/kg, tail vein
  tumor volume growth: could not inhibit tumor growth
[3]; after 24 days
  H&E histology of heart and liver: liver corresponding to the free DOX group was greatly damaged, and myocardial cell atrophied
  H&E histology of tumor tissue: grew vigorously
[4]; DOX about 7.5 mg/kg
  reduction of body weight of nude mice: about 34%
  side effects / tolerance: large side effects
  time within which all mice died: ≤ 15 days
[4]; DOX about 7.5 mg/kg, tail vein
  tumor volume growth / therapeutic effect: could not inhibit tumor growth
[4]; DOX about 7.5 mg/kg, listed as free drug
  side effects / tolerance: not tolerated
[4]; after 24 days
  H&E histology of heart and liver: liver corresponding to the free DOX group was greatly damaged, and myocardial cell atrophied
  H&E histology of tumor tissue: grew vigorously
[5]
  blood circulation (DOX in mice blood): almost not detected in mice blood after 2 h
